Experiments:
GtfB = biological target: T1, GtfB (Streptococcus mutans, UniProt P08987); test: incorporation of […]-glucose from labelled sucrose into glucans, scintillation counting; type: biochemical
T1 construct: secreted enzyme from culture supernatant of S. milleri KSB8 carrying gtfB of S. mutans GS-5; purified to near homogeneity by hydroxyapatite chromatography

GtfC = biological target: T2, GtfC (Streptococcus mutans, UniProt P13470); test: as above; type: biochemical
T2 construct: secreted enzyme from culture supernatant of S. mutans WHB 410 (expresses gtfC only); purified to near homogeneity by hydroxyapatite chromatography
T2 sequence (P13470 35-1455): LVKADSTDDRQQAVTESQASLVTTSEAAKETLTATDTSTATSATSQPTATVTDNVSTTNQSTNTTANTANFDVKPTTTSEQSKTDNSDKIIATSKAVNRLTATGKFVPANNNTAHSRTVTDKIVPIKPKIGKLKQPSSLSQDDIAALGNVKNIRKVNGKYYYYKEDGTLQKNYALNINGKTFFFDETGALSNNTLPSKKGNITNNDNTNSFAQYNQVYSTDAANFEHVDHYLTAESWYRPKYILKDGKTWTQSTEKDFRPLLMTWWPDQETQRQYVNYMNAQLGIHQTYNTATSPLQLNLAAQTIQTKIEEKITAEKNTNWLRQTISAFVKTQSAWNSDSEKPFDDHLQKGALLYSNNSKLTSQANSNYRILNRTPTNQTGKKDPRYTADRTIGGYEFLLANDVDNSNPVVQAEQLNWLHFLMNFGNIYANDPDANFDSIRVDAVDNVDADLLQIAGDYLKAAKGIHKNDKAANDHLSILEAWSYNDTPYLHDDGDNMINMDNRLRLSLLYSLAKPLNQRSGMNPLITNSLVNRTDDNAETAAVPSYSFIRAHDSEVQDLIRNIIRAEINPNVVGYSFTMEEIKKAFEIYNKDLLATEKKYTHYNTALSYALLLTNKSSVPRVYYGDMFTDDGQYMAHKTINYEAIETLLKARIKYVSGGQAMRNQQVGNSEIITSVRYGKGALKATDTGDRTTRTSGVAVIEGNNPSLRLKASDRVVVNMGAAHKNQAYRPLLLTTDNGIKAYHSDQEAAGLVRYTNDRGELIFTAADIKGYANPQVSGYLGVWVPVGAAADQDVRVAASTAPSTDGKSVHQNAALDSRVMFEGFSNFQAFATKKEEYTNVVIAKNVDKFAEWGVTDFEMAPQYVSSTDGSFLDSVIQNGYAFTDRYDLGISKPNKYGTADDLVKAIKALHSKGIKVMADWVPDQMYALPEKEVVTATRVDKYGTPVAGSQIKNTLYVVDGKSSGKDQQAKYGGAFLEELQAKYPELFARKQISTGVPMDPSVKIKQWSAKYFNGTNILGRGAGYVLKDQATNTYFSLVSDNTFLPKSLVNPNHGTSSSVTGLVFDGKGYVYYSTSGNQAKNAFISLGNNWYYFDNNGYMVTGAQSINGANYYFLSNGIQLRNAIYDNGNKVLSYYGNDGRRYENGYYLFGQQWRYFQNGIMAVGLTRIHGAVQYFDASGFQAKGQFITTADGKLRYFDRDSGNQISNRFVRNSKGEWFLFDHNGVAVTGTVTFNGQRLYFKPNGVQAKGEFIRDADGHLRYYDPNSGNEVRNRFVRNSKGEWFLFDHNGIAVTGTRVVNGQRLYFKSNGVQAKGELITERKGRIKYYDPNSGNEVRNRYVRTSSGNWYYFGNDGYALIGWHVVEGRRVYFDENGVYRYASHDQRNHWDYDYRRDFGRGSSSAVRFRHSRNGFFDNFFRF

T1 sequence (P08987 35-1476): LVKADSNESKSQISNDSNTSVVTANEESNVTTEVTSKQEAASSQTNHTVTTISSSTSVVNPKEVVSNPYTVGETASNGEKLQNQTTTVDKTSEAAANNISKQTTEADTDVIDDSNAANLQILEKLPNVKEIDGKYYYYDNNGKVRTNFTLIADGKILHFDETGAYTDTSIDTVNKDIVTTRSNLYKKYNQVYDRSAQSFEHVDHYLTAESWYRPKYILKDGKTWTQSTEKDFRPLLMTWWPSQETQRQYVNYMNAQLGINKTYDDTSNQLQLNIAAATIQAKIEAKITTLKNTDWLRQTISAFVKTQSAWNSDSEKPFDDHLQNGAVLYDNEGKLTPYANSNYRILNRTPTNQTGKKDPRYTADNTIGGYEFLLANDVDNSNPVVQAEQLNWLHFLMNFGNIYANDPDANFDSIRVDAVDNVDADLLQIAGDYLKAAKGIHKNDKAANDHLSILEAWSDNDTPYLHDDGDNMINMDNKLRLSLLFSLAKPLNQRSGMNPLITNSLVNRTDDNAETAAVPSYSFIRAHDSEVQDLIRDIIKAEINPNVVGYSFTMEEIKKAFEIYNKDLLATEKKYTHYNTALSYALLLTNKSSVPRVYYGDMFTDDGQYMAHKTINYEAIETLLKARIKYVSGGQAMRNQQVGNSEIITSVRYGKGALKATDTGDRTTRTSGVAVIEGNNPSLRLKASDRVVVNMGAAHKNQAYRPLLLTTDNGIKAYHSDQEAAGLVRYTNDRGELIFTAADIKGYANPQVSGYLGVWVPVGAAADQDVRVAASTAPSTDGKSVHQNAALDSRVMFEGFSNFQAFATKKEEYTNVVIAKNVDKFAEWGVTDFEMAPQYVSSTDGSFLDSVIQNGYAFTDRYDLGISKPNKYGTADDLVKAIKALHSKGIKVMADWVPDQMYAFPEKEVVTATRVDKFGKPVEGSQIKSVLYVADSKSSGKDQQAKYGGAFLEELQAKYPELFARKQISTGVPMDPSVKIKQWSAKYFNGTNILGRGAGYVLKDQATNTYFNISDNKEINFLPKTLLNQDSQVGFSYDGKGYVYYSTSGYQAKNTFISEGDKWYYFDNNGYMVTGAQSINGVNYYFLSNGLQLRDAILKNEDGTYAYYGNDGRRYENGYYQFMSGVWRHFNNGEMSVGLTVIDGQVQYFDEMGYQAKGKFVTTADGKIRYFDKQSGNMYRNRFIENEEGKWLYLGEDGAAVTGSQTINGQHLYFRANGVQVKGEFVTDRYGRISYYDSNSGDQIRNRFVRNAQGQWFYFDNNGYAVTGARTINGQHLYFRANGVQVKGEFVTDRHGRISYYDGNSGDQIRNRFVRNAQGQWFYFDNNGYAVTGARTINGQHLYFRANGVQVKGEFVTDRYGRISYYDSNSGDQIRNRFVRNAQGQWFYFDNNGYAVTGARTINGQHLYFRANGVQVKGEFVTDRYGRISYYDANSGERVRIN

Molecule COc1c(O)cc2oc3cc(O)c(CC=C(C)C)c(O)c3c(=O)c2c1CC=C(C)C [αMG, α-mangostin] has an inhibition at 150 µM (GtfB) greater than 70% and an inhibition at 150 µM (GtfC) greater than 70%.

Reference: PMC4211880, “α-Mangostin Disrupts the Development of Streptococcus mutans Biofilms and Facilitates Its Mechanical Removal” (PLoS ONE, 2014)
